Assay in all cases: biochemical
Design in all cases: in vitro kinase selectivity panel, protein and lipid kinases, single concentration, ATP at Km
What all share (conditions): ATP at Km

Test [1] addresses DYRK2(h) (Homo sapiens, UniProt Q92630). The method in brief: (§1)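 Single-point screen against a protein and lipid kinase panel: inhibitor at 1 μM. ATP concentration for every kinase equivalent to its Km.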
Test [2] addresses EGFR(T790M,L858R)(h) (Homo sapiens, UniProt P00533, L858R/T790M). The essentials:
as §1

Test [3] has as its target T1, AMPKα1(h) (Homo sapiens, UniProt Q13131).
T1 construct: gene PRKAA1
The method in brief:
as §1

Test [4] has as its target T2, CaMKI(h) (Homo sapiens, UniProt Q14012).
T2 construct: gene CAMK1
The essentials:
as §1

Test [5] addresses T3, CK1δ(h) (Homo sapiens, UniProt P48730).
T3 construct: gene CSNK1D
The essentials: as §1

In test [6] the target is T4, c-RAF(h) (Homo sapiens, UniProt P04049).
T4 construct: gene RAF1
The method in brief: as §1

Test [7] deals with T5, MAPKAP-K2(h) (Homo sapiens, UniProt P49137).
T5 construct: gene MAPKAPK2
T5 sequence (P49137 whole entry): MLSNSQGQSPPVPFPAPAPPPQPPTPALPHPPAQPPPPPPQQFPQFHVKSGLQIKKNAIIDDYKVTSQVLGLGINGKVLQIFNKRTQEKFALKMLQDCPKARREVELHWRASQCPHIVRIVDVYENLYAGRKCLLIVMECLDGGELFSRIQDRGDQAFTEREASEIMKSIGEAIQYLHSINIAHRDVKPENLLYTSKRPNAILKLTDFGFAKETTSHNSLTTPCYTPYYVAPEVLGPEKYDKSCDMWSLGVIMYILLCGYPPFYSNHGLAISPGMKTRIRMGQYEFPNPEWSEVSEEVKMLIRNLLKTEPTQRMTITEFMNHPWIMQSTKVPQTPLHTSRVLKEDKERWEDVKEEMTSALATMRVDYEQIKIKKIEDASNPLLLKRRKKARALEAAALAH
The method in brief:
as §1

Test [8] concerns the target T6, ROCK-I(h) (Homo sapiens, UniProt Q13464).
T6 construct: gene ROCK1
The method in brief: as §1

Test [9] concerns the target T7, cSRC(h) (Homo sapiens, UniProt P12931).
T7 construct: gene SRC
The method in brief: as §1

Test [10] has as its target T8, PDGFRα(D842V)(h) (Homo sapiens, UniProt P16234, D842V).
T8 construct: gene PDGFRA
The essentials: as §1

Test [11] deals with EphA7(h) (Homo sapiens, UniProt Q15375). The essentials: as §1
Test [12] addresses T9, PKD2(h) (Homo sapiens, UniProt Q9BZL6).
T9 construct: gene PRKD2
The essentials: as §1

In test [13] the target is T10, p70S6K(h) (Homo sapiens, UniProt P23443).
T10 construct: gene RPS6KB1
T10 sequence (P23443 whole entry): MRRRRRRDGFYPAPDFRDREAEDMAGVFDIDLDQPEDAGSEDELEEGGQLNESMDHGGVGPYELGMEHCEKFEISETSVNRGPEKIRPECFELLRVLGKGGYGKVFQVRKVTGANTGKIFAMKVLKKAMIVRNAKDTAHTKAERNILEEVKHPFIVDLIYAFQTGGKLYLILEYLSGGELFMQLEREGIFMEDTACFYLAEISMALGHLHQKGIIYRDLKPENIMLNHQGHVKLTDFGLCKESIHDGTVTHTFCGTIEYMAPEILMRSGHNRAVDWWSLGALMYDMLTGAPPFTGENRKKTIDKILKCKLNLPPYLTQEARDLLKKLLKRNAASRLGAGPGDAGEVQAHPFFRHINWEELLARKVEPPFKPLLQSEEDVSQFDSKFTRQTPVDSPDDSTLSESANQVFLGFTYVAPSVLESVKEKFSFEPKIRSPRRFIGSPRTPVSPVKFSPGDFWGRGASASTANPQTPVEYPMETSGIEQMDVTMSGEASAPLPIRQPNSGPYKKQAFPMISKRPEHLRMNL
The method in brief:
as §1

The target in test [14] is FGFR2(h) (Homo sapiens, UniProt P21802). The method in brief: as §1
The target in test [15] is T11, ARK5(h) (Homo sapiens, UniProt O60285).
T11 construct: gene NUAK1
T11 sequence (O60285 whole entry): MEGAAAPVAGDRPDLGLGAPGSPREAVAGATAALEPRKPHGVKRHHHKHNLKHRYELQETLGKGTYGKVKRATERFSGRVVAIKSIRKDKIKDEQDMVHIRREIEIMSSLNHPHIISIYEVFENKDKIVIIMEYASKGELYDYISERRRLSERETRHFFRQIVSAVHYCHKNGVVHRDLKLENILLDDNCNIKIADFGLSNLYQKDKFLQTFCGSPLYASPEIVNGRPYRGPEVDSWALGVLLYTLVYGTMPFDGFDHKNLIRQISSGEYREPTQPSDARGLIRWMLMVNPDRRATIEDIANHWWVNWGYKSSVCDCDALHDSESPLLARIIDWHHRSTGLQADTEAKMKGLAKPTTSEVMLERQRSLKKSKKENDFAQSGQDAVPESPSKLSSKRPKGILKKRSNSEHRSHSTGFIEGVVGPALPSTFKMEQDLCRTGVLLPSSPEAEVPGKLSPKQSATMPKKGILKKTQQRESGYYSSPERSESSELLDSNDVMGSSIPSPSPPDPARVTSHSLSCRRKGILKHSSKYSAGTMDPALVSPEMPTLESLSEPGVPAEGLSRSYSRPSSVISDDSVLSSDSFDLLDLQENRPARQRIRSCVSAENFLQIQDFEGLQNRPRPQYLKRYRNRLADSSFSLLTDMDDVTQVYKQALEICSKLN
The essentials: as §1

Test [16] deals with EGFR(h) (Homo sapiens, UniProt P00533). The essentials: as §1
Test [17] concerns the target T12, TrkB(h) (Homo sapiens, UniProt Q16620).
T12 construct: gene NTRK2
The method in brief: as §1

T8 sequence (P16234 whole entry D842V): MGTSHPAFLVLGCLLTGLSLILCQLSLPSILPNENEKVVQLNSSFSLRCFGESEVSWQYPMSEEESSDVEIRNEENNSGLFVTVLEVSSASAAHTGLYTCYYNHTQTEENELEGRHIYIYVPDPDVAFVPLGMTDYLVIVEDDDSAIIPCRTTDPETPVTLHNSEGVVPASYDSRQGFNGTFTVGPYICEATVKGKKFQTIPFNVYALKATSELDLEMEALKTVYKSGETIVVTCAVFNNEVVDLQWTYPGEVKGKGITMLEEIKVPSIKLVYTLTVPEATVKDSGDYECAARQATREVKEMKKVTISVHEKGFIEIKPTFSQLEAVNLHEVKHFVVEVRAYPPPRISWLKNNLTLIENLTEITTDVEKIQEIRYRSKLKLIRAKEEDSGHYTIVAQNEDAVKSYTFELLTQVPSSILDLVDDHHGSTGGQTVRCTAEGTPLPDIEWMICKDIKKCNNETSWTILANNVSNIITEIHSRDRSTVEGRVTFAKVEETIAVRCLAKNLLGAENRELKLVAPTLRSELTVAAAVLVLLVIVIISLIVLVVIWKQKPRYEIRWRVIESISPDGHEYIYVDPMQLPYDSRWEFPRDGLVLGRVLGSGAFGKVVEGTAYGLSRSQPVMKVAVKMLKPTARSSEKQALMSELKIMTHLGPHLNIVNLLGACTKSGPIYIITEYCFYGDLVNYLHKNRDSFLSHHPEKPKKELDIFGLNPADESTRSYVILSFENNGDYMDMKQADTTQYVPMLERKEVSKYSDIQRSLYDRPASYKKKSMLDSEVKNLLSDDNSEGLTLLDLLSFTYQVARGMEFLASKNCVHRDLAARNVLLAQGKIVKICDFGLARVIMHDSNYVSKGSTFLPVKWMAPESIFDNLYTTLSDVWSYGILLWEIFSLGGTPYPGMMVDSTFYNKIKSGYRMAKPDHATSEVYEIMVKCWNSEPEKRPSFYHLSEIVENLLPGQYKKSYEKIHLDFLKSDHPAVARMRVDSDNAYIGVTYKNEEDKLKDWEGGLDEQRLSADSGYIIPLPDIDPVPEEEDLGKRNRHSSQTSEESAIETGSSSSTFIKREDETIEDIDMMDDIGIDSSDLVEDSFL
Sequence of EGFR(T790M,L858R)(h) (P00533 whole entry T790M/L858R): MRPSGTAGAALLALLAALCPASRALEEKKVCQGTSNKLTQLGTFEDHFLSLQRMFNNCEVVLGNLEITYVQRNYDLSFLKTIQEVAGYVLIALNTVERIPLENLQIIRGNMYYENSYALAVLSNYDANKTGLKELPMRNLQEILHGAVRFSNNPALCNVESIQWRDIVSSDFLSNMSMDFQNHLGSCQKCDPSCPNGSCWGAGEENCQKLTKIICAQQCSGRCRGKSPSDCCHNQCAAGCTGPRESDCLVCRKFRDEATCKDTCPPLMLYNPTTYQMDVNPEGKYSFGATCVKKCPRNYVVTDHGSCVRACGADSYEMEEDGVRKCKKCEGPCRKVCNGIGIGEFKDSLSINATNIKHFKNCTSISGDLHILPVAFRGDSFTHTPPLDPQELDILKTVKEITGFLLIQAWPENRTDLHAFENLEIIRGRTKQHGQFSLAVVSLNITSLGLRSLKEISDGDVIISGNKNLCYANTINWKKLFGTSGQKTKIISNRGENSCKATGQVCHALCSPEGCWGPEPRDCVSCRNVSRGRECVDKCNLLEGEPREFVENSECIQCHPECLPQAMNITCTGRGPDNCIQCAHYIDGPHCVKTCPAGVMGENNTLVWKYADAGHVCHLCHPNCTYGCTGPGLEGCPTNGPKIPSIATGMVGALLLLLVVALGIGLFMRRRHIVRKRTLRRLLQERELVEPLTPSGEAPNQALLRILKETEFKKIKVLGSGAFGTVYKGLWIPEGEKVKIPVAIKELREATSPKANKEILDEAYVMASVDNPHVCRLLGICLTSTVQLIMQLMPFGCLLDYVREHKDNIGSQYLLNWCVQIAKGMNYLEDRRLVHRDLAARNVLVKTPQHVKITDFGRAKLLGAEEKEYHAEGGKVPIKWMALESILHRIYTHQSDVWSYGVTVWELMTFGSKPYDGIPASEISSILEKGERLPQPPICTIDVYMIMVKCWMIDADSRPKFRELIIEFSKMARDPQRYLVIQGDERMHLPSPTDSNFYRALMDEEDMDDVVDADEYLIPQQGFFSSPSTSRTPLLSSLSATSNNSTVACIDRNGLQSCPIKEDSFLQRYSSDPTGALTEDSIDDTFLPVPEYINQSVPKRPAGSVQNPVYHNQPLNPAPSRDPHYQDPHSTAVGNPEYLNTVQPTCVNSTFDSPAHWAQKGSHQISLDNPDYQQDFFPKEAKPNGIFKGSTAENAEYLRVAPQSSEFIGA
T2 sequence (Q14012 whole entry): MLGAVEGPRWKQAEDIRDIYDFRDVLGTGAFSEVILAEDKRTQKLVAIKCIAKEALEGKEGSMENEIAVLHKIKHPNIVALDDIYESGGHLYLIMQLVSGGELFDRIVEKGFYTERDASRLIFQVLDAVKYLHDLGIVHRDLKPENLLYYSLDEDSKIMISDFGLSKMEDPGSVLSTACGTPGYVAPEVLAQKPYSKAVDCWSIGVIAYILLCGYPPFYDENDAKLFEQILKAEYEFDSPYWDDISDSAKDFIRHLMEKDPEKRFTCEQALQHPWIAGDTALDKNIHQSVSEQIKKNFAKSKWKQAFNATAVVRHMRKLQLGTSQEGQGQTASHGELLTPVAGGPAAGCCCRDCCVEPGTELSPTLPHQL
T7 sequence (P12931 whole entry): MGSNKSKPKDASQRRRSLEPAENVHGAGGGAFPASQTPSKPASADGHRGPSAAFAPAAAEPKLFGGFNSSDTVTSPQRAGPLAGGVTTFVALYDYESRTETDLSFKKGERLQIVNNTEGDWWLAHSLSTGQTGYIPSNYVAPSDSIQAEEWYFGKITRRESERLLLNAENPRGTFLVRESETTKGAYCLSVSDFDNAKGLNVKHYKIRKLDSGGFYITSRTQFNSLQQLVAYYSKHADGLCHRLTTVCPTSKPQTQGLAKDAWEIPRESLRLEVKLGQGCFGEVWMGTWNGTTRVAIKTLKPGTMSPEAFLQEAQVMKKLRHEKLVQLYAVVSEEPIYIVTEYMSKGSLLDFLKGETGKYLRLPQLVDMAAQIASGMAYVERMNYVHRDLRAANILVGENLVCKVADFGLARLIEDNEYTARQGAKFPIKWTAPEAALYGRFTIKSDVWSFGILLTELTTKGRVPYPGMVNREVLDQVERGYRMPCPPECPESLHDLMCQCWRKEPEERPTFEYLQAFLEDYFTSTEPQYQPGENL

Usually inhibition stands for the change of the read-out against control, counted positive when it falls. `CC[C@@H](N)CNc1ccnc(-c2cc(-c3cnn(C)c3)ccc2O)n1` [CRT0066101]: the inhibition at 1 µM is 94% in test [1]; -3% in [2]; 17% in [3]; 2% in test [4]; 13% in test [5]; 4% in test [6]. In addition, the inhibition at 1 µM was -9% in [7]; 4% in [8]; 3% in test [9]; 61% in test [10]; -9% in test [11]; 96% in [12]. For the same compound, the inhibition at 1 µM in test [13] was 31%; in [14] it was 5%; in test [15], 49%; in test [16] it was -6%; in test [17], 15%.
